The subject of series [1] is MDR1 (P-glycoprotein). The series can be described thus: MDCK-MDR1 permeability A→B. Type of series: in vitro ADME, Canine. To be noted: dog; MDCK cells expressing human MDR1, A→B; read-out: MDCK-MDR Permeability A→B. The method, then: (§1) ADME studies: Compound A and the compounds of the disclosure were tested for aqueous solubility (KSOL), metabolic stability (human and mouse […]) and permeability (Caco-2 and/or MDR1-MDCK cells) to provide an initial indication of oral bioavailability.
(§2) The favorable physicochemical properties are reflected in promising results in in vitro ADME tests. […] Metabolic stability, which was routinely measured with mouse and human hepatocytes, is outstanding, with t, greater than 2 hours for all of the compounds of the disclosure in which it has been measured. Cell permeability was measured using MDCK cells expressing human MDR1 (P-glycoprotein) to assess passive permeability as well as active transport out of the cell. […] Numerous compounds in Table 1 meet these permeability criteria, which is consistent with their design for TPSA <140 Å^2 and increased lipophilicity.
(§3) The MDCK-MDR1 permeability A ->B is shown in Table 2 below, where A represents 5-10 cm/s×10^−6; B represents 1-5 cm/s×10^−6; and C represents <1 cm/ss×10^−6. The metabolic stability half time, in both mouse and human hepatocytes, is also shown in Table 2 below, where A′ represents 100-200 minutes; B′ represents 200-300 minutes; and C′ represents >300 minutes.

The test system of series [2] is IFNβ production in THP-1 cells. The series can be described thus: IFNβ ELISA in THP-1 cells. It is filed as cell-based, human. To be noted: Homo sapiens; THP-1 cells. The source says:
Cellular assays: The human monocyte cell line THP-1 and human primary PBMCs were used to evaluate the cellular activity of compounds with good biochemical potency. These cells produce a robust cGAS/STING-dependent type I IFN response when stimulated with dsDNA and other pathogen-associated molecular patterns, which was detected using a standard ELISA for IFNβ (R&D Systems). The TBK1 inhibitor, BX-795, which acts downstream of cGAS/STING, was used as a probe.
CETSA was also used to confirm that the compounds are binding to cGAS in cells; THP-1 cells are used for this analysis. Compounds were tested in dose response mode by incubating with cells for 1.5 hours at 37° C., followed by pelleting and re-suspending in PBS, heating to 51.5° C. for 3 min and cooling to room temp. Cells were then lysed, debris, including denatured cGAS, was pelleted and the supernatant was analyzed for soluble cGAS by Western Blot using anti-cGAS primary Ab (Cell Signaling). Band intensity was analyzed using Image J software. Stimulation with cGAMP directly activates STING, circumventing cGAS; this was used to determine if compounds had effects on downstream components of cGAS/STING signaling. The IFN-6 ELISA was used as the primary measure of cellular potency and selectivity (Table 3) and used the reporter gene assays for assessing off-target activity with other pattern recognition receptors.
The ICso values for IFNB ELISA stimulated with THP-1, PBMC, DNA, and cGAMP were determined for several exemplary compounds of the invention, and are provided in Table 3 where A represents <1 μM; B represents 1-2.5 μM; C represents 2.5-10 μM; D represents 10-20 μM; and E represents >20 μM.

Series [3] deals with cGAS (Homo sapiens, UniProt Q8N884). The series can be described thus: Transcreener cGAS enzymatic assay (FP). It is filed as biochemical. The method, then:
Structural, biochemical and biophysical analysis and selectivity profiling: Potency and MOA studies, including Mn^2+ sensitivity, were performed using the Transcreener cGAS enzymatic assay, which is manufactured at BellBrook Labs (Fitchburg, Wisconsin, USA). This homogenous cGAS enzymatic assay was developed with fluorescence polarization (FP) and time-resolved Forster resonance energy transfer (TR-FRET) readouts, as described in International Patent Publication WO 2020/142729, incorporated by reference herein in its entirety. Plates are read on a PHERAstar FSX multimode reader (BMG). The compounds of the disclosure were tested for inhibition of cGAS ([…]) using this cGAS enzymatic assay under standard conditions (100 μM ATP and GTP, 62.5 nM bp ISD, 60 minute reactions), high ATP and GTP (1 mM) to mimic physiological conditions, in the presence of 200 μM MnCl2, and with mouse cGAS under standard conditions.
The IC50 values for FP under standard and under physiological conditions were determined for several exemplary compounds of the invention. The relative activities for FP Standard IC50 are shown in Table 2 below, where A represents <50 nM; B represents 50-100 nM; C represents 100-200 nM; D represents 200 nM-1μM; and E represents 1-10 μM. For the relative activities for FP Physiological IC50, A′ represents <200 nM; B′ represents 200-500 nM; C′ represents 500 nM-1μM; D′ represents 1-5 μM; and E′ represents >5 μM.

Series [4] has as its system MDCK cells expressing human MDR1 (P-glycoprotein). The series can be described thus: MDCK-MDR1 permeability A→B. Type of series: in vitro ADME, Canine. The method, then: as §1, §2, §3
Where [5] appears, read: high ATP and GTP (1 mM) to mimic physiological conditions, read-out: IC50 FP Physiological.
Setting [6] is: standard conditions: 100 μM ATP and GTP, 62.5 nM bp ISD, 60 minute reactions, read-out: IC50 FP Standard.

Read-outs that look alike come from different tables or passages of the source.

Sequence of cGAS (Q8N884 whole entry): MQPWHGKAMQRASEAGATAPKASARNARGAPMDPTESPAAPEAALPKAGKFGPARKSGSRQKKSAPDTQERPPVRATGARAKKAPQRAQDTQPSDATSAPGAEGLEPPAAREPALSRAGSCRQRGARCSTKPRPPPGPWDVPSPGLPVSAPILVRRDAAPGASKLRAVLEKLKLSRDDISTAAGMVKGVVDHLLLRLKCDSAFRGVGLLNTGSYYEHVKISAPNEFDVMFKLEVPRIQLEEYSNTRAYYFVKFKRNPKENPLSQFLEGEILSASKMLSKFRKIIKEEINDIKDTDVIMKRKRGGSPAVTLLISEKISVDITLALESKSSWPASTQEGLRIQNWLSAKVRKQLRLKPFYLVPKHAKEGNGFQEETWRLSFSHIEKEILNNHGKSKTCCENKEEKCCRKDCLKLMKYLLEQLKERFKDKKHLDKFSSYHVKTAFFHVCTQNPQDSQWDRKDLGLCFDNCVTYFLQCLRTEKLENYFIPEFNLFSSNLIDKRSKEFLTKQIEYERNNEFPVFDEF

Take `Cc1nc(N2C[C@@H](CC(=O)Nc3ccc(Cl)cc3)C[C@H]2C(=O)O)c2oc3ccccc3c2n1` [Compound 21, (28.4R)-4-(2-((4-chlorophenyl)amino)-2-oxoethyl)-1-(2-methylbenzofuro[3,2-d]pyrimidin-4-yl)pyrrolidine-2-carboxylic acid]: the Papp A→B in series [1] lay within 1 to 5 ×10⁻⁶ cm/s. Also, the IC50 fell in the range of 10 to 20 µM in series [2], 1 to 5 µM in series [3] (setting [5]) and 0.1 to 0.2 µM in series [3] (setting [6]).

As to `Cc1cccc(NC(=O)C[C@H]2C[C@@H](C(=O)O)N(c3nc(C)nc4c3oc3ccccc34)C2)c1` [Compound 16, (28.4R)-1-(2-methylbenzofuro[3,2-d]pyrimidin-4-yl)-4-(2-oxo-2-(m-tolylamino)ethyl)pyrrolidine-2-carboxylic acid], the Papp A→B in series [1] lay within 1 to 5 ×10⁻⁶ cm/s. For the same compound, the IC50 in series [2] is above 20 µM; in series [3] (setting [5]), 1 to 5 µM; in series [3] (setting [6]), 0.2 to 1 µM.

Turning to `Cc1nc(N2C[C@@H](CC(=O)Nc3cccc(F)c3)C[C@H]2C(=O)O)c2oc3ccccc3c2n1` [Compound 19, (2S,4R)-4-(2-((3-fluorophenyl)amino)-2-oxoethyl)-1-(2-methylbenzofuro[3,2-d]pyrimidin-4-yl)pyrrolidine-2-carboxylic acid], the Papp A→B in series [1] was 1 to 5 ×10⁻⁶ cm/s. Further, the concentration for half-maximal inhibition (IC50) in series [2] was 10 to 20 µM; in series [3] (setting [5]) it was 1 to 5 µM; in series [3] (setting [6]) it was 0.2 to 1 µM.

Consider `Cc1nc(N2C[C@@H](CC(=O)Nc3ccccc3Cl)C[C@H]2C(=O)O)c2oc3ccccc3c2n1` [Compound 23, (28.4R)-4-(2-((2-chlorophenyl)amino)-2-oxoethyl)-1-(2-methylbenzofuro[3,2-d]pyrimidin-4-yl)pyrrolidine-2-carboxylic acid], for which, in series [1], the Papp A→B is 1 to 5 ×10⁻⁶ cm/s. Moreover, the results for the IC50 in series [2], in series [3] (setting [5]) and in series [3] (setting [6]) were above 20 µM, above 5 µM and 0.2 to 1 µM, respectively.

On to `Cc1nc(N2C[C@@H](CC(=O)Nc3ccc(-c4ccccc4)cn3)C[C@H]2C(=O)O)c2oc3ccccc3c2n1` [Compound 67, (2S,4R)-1-(2-methylbenzofuro[3,2-d]pyrimidin-4-yl)-4-(2-oxo-2-((5-phenylpyridin-2-yl)amino)ethyl)pyrrolidine-2-carboxylic acid], for which the Papp A→B in series [1] was 5 to 10 ×10⁻⁶ cm/s. The values for the IC50 in series [2], in series [3] (setting [5]) and in series [3] (setting [6]) were 2.5 to 10 µM, 0.5 to 1 µM and 0.05 to 0.1 µM, respectively.

`COc1ccccc1NC(=O)C[C@H]1C[C@@H](C(=O)O)N(c2nc(C)nc3c2oc2ccccc23)C1` [Compound 14, (28.4R)-4-(2-((2-methoxyphenyl)amino)-2-oxoethyl)-1-(2-methylbenzofuro[3,2-d]pyrimidin-4-yl)pyrrolidine-2-carboxylic acid]: in series [4], the “MDCK-MDR Permeability A→B” value is recorded as “C (C represents <1 cm/ss×10^−6)”. Further, the values for the IC50 in series [2], in series [3] (setting [5]) and in series [3] (setting [6]) were above 20 µM, above 5 µM and 1 to 10 µM, respectively.

For the compound `Cc1nc(N2C[C@@H](CC(=O)Nc3ccc(N4CCN(C)CC4)cc3)C[C@H]2C(=O)O)c2oc3ccccc3c2n1` [Compound 9, (2S,4R)-1-(2-methylbenzofuro[3,2-d]pyrimidin-4-yl)-4-(2-((4-(4-methylpiperazin-1-yl)phenyl)amino)-2-oxoethyl)pyrrolidine-2-carboxylic acid], the “MDCK-MDR Permeability A→B” value in series [4] was “C (C represents <1 cm/ss×10^−6)”. In addition, the results for the IC50 in series [2], in series [3] (setting [5]) and in series [3] (setting [6]) were above 20 µM, above 5 µM and 1 to 10 µM, respectively.

On to `Cc1nc(N2C[C@@H](CC(=O)Nc3cccc(N4CCOCC4)c3)C[C@H]2C(=O)O)c2oc3ccccc3c2n1` [Compound 57, (2S,4R)-1-(2-methylbenzofuro[3,2-d]pyrimidin-4-yl)-4-(2-((3-morpholinophenyl)amino)-2-oxoethyl)pyrrolidine-2-carboxylic acid], for which the “MDCK-MDR Permeability A→B” value in series [4] is “C (C represents <1 cm/ss×10^−6)”. The IC50 was above 20 µM in series [2], 1 to 5 µM in series [3] (setting [5]) and 0.1 to 0.2 µM in series [3] (setting [6]).

In the case of `Cc1nc(N2C[C@@H](CC(=O)Nc3ccc4cn[nH]c4c3)C[C@H]2C(=O)O)c2oc3ccccc3c2n1` [Compound 30, (28.4R)-4-(2-((1H-indazol-6-yl)amino)-2-oxoethyl)-1-(2-methylbenzofuro[3,2-d]pyrimidin-4-yl)pyrrolidine-2-carboxylic acid], the “MDCK-MDR Permeability A→B” value in series [4] is reported as “C (C represents <1 cm/ss×10^−6)”. The IC50 is above 20 µM in series [2], 1 to 5 µM in series [3] (setting [5]) and 0.1 to 0.2 µM in series [3] (setting [6]).

As for `Cc1nc(N2C[C@@H](CC(=O)Nc3ccc4nc[nH]c4c3)C[C@H]2C(=O)O)c2oc3ccccc3c2n1` [Compound 29, (2S,4R)-4-(2-((1H-benzo[d]imidazol-6-yl)amino)-2-oxoethyl)-1-(2-methylbenzofuro[3,2-d]pyrimidin-4-yl)pyrrolidine-2-carboxylic acid], the “MDCK-MDR Permeability A→B” value in series [4] is given as “C (C represents <1 cm/ss×10^−6)”. The IC50 is above 20 µM in series [2], 0.5 to 1 µM in series [3] (setting [5]) and 0.1 to 0.2 µM in series [3] (setting [6]).

On to `Cc1nc(N2C[C@@H](CC(=O)Nc3ccc(Cc4ccccn4)cc3)C[C@H]2C(=O)O)c2oc3ccccc3c2n1` [Compound 56, (2S,4R)-1-(2-methylbenzofuro[3,2-d]pyrimidin-4-yl)-4-(2-oxo-2-((4-(pyridin-2-ylmethyl)phenyl)amino)ethyl)pyrrolidine-2-carboxylic acid], for which the “MDCK-MDR Permeability A→B” value in series [4] is recorded as “C (C represents <1 cm/ss×10^−6)”. Further, the IC50 is above 20 µM in series [2], 1 to 5 µM in series [3] (setting [5]) and 0.2 to 1 µM in series [3] (setting [6]).

`Cc1nc(N2C[C@@H](CC(=O)Nc3ccccc3C)C[C@H]2C(=O)O)c2oc3ccccc3c2n1` [Compound 17, (2S,4R)-1-(2-methylbenzofuro[3,2-d]pyrimidin-4-yl)-4-(2-oxo-2-(o-tolylamino)ethyl)pyrrolidine-2-carboxylic acid]: in series [4], the “MDCK-MDR Permeability A→B” value is “C (C represents <1 cm/ss×10^−6)”. Further, the IC50 was above 20 µM in series [2], above 5 µM in series [3] (setting [5]) and 0.2 to 1 µM in series [3] (setting [6]).

With `Cc1nc(N2C[C@@H](CC(=O)Nc3ccc(-c4cn[nH]c4)cc3)C[C@H]2C(=O)O)c2oc3ccccc3c2n1` [Compound 10, (2S,4R)-4-(2-((4-(1H-pyrazol-4-yl)phenyl)amino)-2-oxoethyl)-1-(2-methylbenzofuro[3,2-d]pyrimidin-4-yl)pyrrolidine-2-carboxylic acid], the “MDCK-MDR Permeability A→B” value in series [4] is on record as “C (C represents <1 cm/ss×10^−6)”. For the same compound, the IC50 in series [2] is above 20 µM; in series [3] (setting [5]), 0.2 to 0.5 µM; in series [3] (setting [6]) it was below 0.05 µM.

Turning to `COc1cccc(NC(=O)C[C@H]2C[C@@H](C(=O)O)N(c3nc(C)nc4c3oc3ccccc34)C2)c1` [Compound 13, (2S,4R)-4-(2-((3-methoxyphenyl)amino)-2-oxoethyl)-1-(2-methylbenzofuro[3,2-d]pyrimidin-4-yl)pyrrolidine-2-carboxylic acid], in series [4], the “MDCK-MDR Permeability A→B” value was “C (C represents <1 cm/ss×10^−6)”. Moreover, the IC50 in series [2] fell in the range of 10 to 20 µM; in series [3] (setting [5]), 1 to 5 µM; in series [3] (setting [6]), 0.2 to 1 µM.

The record behind these values is US20240174684A1, “INHIBITORS OF cGAS ACTIVITY AS THERAPEUTIC AGENTS” (BELLBROOK LABS, LLC, priority 2021, published 2024).
